Reference: patent US7326534B2, “Detection of gleevec resistant mutations” (Oregon Health and Science University, priority 2001, dated 2008)

Tested on: Src family kinases
Assay: inhibition of tyrosine kinase
Format: biochemical
Excerpt: […]. […] […]. […] […]

Cc1ccc(NC(=O)c2ccc(CN3CCN(C)CC3)cc2)cc1Nc1nccc(-c2cccnc2)n1 [STI571, N-[4-methyl-3-(4-pyridin-3-yl-pyrimidin-2-ylamino)-phenyl]-4-(4-methyl-piperazin-1-ylmethyl)-benzamide]
inhibition of kinase (in words): not
